The text below walks through data of article PMC4467461, “Small-molecule activation of SERCA2a SUMOylation for the treatment of heart failure” (Nature Communications, 2015).

Molecules are shown by their SMILES.

For the assay, the target named is T1, SUMO E1 SAE1 V315F mutant (Homo sapiens, UniProt Q9UBE0+Q9UBT2, V315F).
T1 construct: GST (N); made in house; host or cells: Escherichia coli BL21
T1 sequence (Q9UBE0 1-346 V315F): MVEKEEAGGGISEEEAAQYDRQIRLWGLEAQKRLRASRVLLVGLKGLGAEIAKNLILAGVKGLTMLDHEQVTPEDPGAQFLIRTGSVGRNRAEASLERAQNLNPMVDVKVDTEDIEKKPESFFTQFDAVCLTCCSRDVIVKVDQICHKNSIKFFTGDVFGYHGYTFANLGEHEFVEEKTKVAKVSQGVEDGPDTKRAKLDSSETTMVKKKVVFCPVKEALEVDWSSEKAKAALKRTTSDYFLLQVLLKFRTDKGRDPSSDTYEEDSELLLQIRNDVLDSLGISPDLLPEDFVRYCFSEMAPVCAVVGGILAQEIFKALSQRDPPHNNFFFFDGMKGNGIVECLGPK
T1 sequence (Q9UBT2 1-640): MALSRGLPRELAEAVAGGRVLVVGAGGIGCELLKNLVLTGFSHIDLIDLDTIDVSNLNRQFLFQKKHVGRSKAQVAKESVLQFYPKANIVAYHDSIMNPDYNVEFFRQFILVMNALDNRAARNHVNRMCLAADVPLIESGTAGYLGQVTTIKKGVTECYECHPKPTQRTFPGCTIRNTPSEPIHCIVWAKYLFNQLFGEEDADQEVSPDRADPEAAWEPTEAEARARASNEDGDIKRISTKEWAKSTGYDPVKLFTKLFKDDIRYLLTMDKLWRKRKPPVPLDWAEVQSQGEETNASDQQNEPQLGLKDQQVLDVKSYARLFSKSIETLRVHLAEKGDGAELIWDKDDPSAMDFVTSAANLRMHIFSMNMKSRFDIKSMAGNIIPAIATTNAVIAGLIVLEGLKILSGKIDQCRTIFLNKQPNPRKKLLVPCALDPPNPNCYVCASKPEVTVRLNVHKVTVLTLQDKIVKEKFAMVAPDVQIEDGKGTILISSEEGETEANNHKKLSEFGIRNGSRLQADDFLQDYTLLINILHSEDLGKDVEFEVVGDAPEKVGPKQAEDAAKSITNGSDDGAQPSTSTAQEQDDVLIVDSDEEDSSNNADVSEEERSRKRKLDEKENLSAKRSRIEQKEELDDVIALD
The assay can be described thus: SUMO E1 activity assays with SAE1 V315F mutant. Format: biochemical. As for the experimental part:
Figure 3 SUMO-specific activating enzyme, E1, is a direct target of N106. Mechanism of action of N106 on individual steps in the SUMOylation cascade in vitro. (a) Inorganic pyrophosphate resulting from ATP hydrolysis in E1-catalysed SUMO-1 activation in the presence of increasing concentration of N106 compound was assessed by fluorogenic pyrophosphate assay kit. Recombinant human SUMO-specific E1 (0.05 μM), human Ubc9 (0.25 μM), human SUMO-1 (12.5 μM) and ATP (1 mM) were incubated with increasing concentration of N106 for 30 min at 37 °C and quantified using a fluorescence microplate reader. (b) The SAE2-SUMO-1 conjugation was detected followed by western blotting with anti-SAE2 antibodies. SUMO E1 (0.05 μM), SUMO-1 (12.5 μM) and ATP (1 mM) were co-incubated with increasing concentration of N106 for 30 min at 37 °C. The reaction mixtures were separated on 7.5% SDS–PAGE gel under non-reducing conditions. (c) E2-SUMO-1 conjugation was visualized by western blotting with anti-Ubc9 antibody. SUMO E1 (0.05 μM), Ubc9 (0.25 μM), SUMO-1 (12.5 μM) and ATP (1 mM) were incubated without or with increasing concentration of N106 for 30 min at 37 °C. […] (e) ATP hydrolytic activity of WT and mutant SUMO E1 are determined. (f) The E1-SUMO-1 conjugation was detected followed by western blot analysis with anti-SAE2 antibody. *The SAE2-SUMO-1 conjugated bands. […]

On to `COc1ccc(-c2nnc(Nc3nc4c(OC)cccc4s3)o2)cc1` [Compound N106, N-(4-methoxybenzo[d]thiazol-2-yl)-5-(4-methoxyphenyl)-1,3,4-oxadiazol-2-amine], for which the “ATP hydrolysis activity with N106, compared with wild-type protein” value (V315F mutant) was “significantly lower”. Further, the “SUMO E1-SUMO and SUMO E2-SUMO conjugations in the presence of N106, compared with WT” value (V315F mutant SAE1) is “weaker”.
